The record followed here is US20160008298A1, “XANTHOHUMOL-BASED COMPOUNDS AND COMPOSITIONS THEREOF, AND METHODS OF MAKING AND USING THE SAME” (Oregon State University, priority 2014, published 2016).

The structures appear in SMILES notation. Where “and” joins values, the source holds several entries; their conditions need not be identical. Identical values can stand only once.

Data set [1] deals with C2C12 cells. Kind of data set: MTT cell viability assay. It is filed as cell-based, mouse. Particulars: for cell viability after one hour of exposure: C2C12, 1 hour, up to 50 μM; for concentration at which cell viability was decreased: C2C12, 24 hours of exposure. The protocol:
Mouse C2C12 skeletal muscle myoblasts (purchased from ATCC, Manassas, Va., USA) were first seeded in 75 cm2 flasks using a culture medium consisting of DMEM (Life Technologies, Grand Island, N.Y., USA), 10% fetal bovine serum (FBS; Atlanta Biologicals, Lawrenceville, Ga., USA), high glucose, L-glutamine, phenol red, 1 mM sodium pyruvate and 100 units/mL penicillin, 100 μg/mL streptomycin. The C2C12 cells were incubated at 37° C. in a humidified atmosphere of 5% CO2 until they were confluent. Then, they were obtained by trypsinization and seeded at a specific density in the plates of choice depending on the experiment.
For cell viability experiments (MTT assay), C2C12 cells were plated in 96-well plates at a density of 4,000 cells per well in 200 μL of growth medium (identical to the culture medium). After 48 hours of incubation, the medium was removed and the cells were treated with fresh solutions of various concentrations of XN, DXN or TXN in phenol red-free growth medium. The final concentrations of XN, DXN, TXN were 1, 2, 5, 8, 10, 25, 50 μM, all in quadruplicate wells, in the 96-well plates. The medium used consists of phenol red free DMEM (Life Technologies, Grand Island, N.Y., USA), 10% FBS, 1% glutamine, 1 mM of sodium pyruvate and 100 units/mL penicillin, 100 μg/mL streptomycin. The plates were then incubated for 24 hours or 1 hour. After removing the medium, the cells were treated with 0.5 mg/mL solution of MTT 3-(4,5-dimethylthiazol-2-yl)-2,5-diphenyltetrazolium bromide in phenol red-free growth medium and incubated for two hours. After removing the medium and adding a solution of acidified isopropanol to each well, the absorbance of each well was measured at 570 nm by using a spectrometer (SpectraMax 190).
Two MTT assays were conducted (FIGS. 11A and 11B): after one hour and 24 hours of exposure.
(Tetrazolium assays rely on reduction of a dye to a coloured formazan, in cell work by metabolically active cells.)

Data set [2] concerns C57BL6/J mice. Briefly: Intraperitoneal glucose tolerance test in high-fat fed mice. It is filed as in vivo, mouse. To be noted: for insulin sensitivity in the GTT compared to control (vehicle-diet) mice: 30 mg/kg body weight/day, weeks 4 and 11; for Mean Plasma Glucose Level 0 Min: 30 mg/kg/day in high fat diet, 6 h fast, before glucose injection; for Mean Plasma Glucose Level 15 min / Mean Plasma Glucose Level 30 min / Mean Plasma Glucose Level 60 min / Mean Plasma Glucose Level 120 min / peak glucose level (group average) / time at which peak glucose level was reached / peak glucose level / time at which peak glucose level occurred: 30 mg/kg/day; for Mean Plasma Glucose Level 15 min / Mean Plasma Glucose Level 30 min / Mean Plasma Glucose Level 60 min / Mean Plasma Glucose Level 120 min: after 2 g/kg glucose i.p.; for peak glucose level (group average) / time at which peak glucose level was reached: Week 4 glucose tolerance test; for peak glucose level / time at which peak glucose level occurred: Week 11 glucose tolerance test. The protocol: The total number of C57BL6/J mice was 48, with 12 mice belonging to each of 4 treatment groups. Duration of the feeding was 14 weeks. Mouse feed contained high fat content (60% of kCal), and was supplemented with XN, DXN, or TXN in the treatment groups. XN, DXN and TXN content within the mouse diet were designed to deliver a dose of 30 mg/kg/day body weight. Food intake was measured three times per week by weighing the food pellet before placement in the cage, and at the time of feed changing by weighing uneaten food. Mice were unrestricted in dietary intake, being allowed to eat as much food as desired. Mice were weighed once per week. Groups included low dose (30 mg/kg) XN, DXN, TXN and no supplement control. Mice were maintained in accordance with the Oregon State University Institutional Animal Care and Use Committee (IACUC) regulations. One mouse was maintained on a standard AIN-93M chow diet to be used as a healthy reference during glucose tolerance assays.
Glucose tolerance tests were conducted during week 4 and week 11 of the feeding trial. Five mice from each treatment group were used in each glucose tolerance assay. Mice were fasted for 6 hours prior to baseline blood glucose testing. Blood was collected from the mice by tail puncture, and glucose measurements were taken using a One Touch UltraMini (LifeScan, Inc.) glucometer. Mice were weighed and then given an intraperitoneal (IP) injection of glucose equal to 2 g/kg body weight.

Data set [3] can be described thus: Mouse feeding experiment, weight gain. In kind it is in vivo. Particulars: 30 mg/kg/day in high fat diet, 12 weeks.
Procedure: Over the course of 12 weeks, mouse weights were recorded once per week and the average weights were calculated for each group.
The subject of data set [4] is C2C12 mouse myocytes. Kind of data set: Cellular uptake by LC-MS/MS. It is filed as in vitro ADME. Particulars: 5 μM, one hour.
Procedure: Cellular uptake investigations were performed using C2C12 mouse myocytes. Cells were cultured in 75 cm2 flasks using Dulbecco's Modified Eagle Medium (DMEM) obtained from Sigma-Aldrich, which was supplemented with 10% Fetal Bovine serum (FBS) and 1% penicillin/streptomycin solution (PS). Cultures were maintained in an incubator at 37° C. and 5% CO2.
Uptake comparisons were conducted by seeding three 12-well plates with 1 mL of C2C12 cells in suspension with a density of 100,000 cells/mL, which were then incubated until confluent. Four treatment groups were compared, including XN, DXN, TXN and a no compound control. Each compound was tested in quadruplicate in the presence of cells and in medium not exposed to cells. Medium not exposed to cells was examined for compound concentration to help account for protein binding in medium. Confluent cells were subsequently treated with fresh DMEM containing 1% FBS, 1% PS, as well as 5 μM XN, DXN, or TXN and incubated at 37° C. and 5% CO2 for one hour. Following incubation, cell medium was collected and the cells were washed once using Hanks Balanced Salt Solution (HBSS). HBSS was then aspirated, and 0.5 mL of cell extraction buffer (50% methanol:ethanol, v:v) was added to each well and the plates were covered with a plastic adhesive plate cover. The plates were placed in a freezer and maintained at −80° C. for 24 hours. After freezing, the plates were removed from the freezer and the cells were removed from the wells using a cell scraper and collected. An additional 0.5 mL of extraction buffer was added to each well as a rinse, which was collected and added to the cell extracts. […]
All cell culture samples were analyzed by LC-MS/MS using an Applied Biosystems API 4000 Q-trap triple quadrupole mass spectrometer. […] Once concentrations could be determined, mass balance of XN, DXN or TXN was calculated based on the average total volume of the sample, approximately 0.995 mL for cell medium, and 0.75 mL for cellular extracts.
Data set [5] concerns mitochondrial transmembrane potential in C2C12 cells. Kind of data set: JC-1 assay of mitochondrial transmembrane potential. In kind it is cell-based, mouse. To be noted: 5 μM, 8 μM, 25 μM and 50 μM; one hour of exposure.
Procedure: Cells were plated at a density of 80,000 cells per well in black 96-well plates and incubated for 24 hours at 37° C. (5% CO2). They were then treated with fresh solutions of various concentrations of XN, DXN or TXN in growth medium. The final concentrations of XN, DXN, TXN were 1, 2, 5, 8, 25, 50 μM, all in quadruplicate wells, in the 96-well plates. After one hour of exposure to the compounds at 37° C. (5% CO2), the cells were treated with 10 μL of a JC-1 staining solution (freshly prepared by diluting 11 fold 100 μL of the JC-1 agent furnished from the assay kit). After 15 to 30 minutes of incubation (37° C., 5% CO2), the cells were washed three times with the Cell-Based Assay Buffer (prepared by dissolving three buffer tablets of the kit in 300 mL of MilliQ water). The plates were then analyzed by a fluorescent plate reader (SpectraMax Gemini XS) at 560-595 nm and 485-535 nm.
JC-1 can selectively enter into mitochondria and reversibly change color from green to red as the membrane potential increases. In healthy cells with high mitochondrial transmembrane potential, JC-1 spontaneously forms complexes known as J-aggregates with intense red fluorescence with excitation and emission at 560 nm and 595 nm, respectively. […] The ratio of fluorescence intensity of J-aggregates to fluorescence intensity of J-monomers can be used as an indicator of cell heath or mitochondrial state. […] A decrease in the values of the ratios compared to the control is indicative of an alteration in the potential across the mitochondrial membrane.

`COc1cc(O)c(CCC(C)C)c(O)c1C(=O)CCc1ccc(O)cc1` [TXN, tetrahydroxanthohumol]: in data set [1], the “cell viability after one hour of exposure” value (“cell viability … of exposure” for short) is on record as “did not significantly affect cell viability” and the “concentration at which cell viability was decreased” value stood at 25 µM. In data set [2], the “insulin sensitivity in the GTT compared to control (vehicle-diet) mice” value is given as “improved insulin sensitivity”; the “peak glucose level (group average)” value is 407.2 mg/dL and 423.0 mg/dL; the “time at which peak glucose level was reached” value is 15 min; the peak glucose level is given as 513.6 mg/dL. The “time at which peak glucose level occurred” value in data set [2] was 30 min. Besides, in data set [2] (Week 4), the “Mean Plasma Glucose Level 0 Min” value is on record as 193.6 (±17.9) mg/dL, the “Mean Plasma Glucose Level 15 min” value is reported as 407.2 (±38.1) mg/dL, the “Mean Plasma Glucose Level 30 min” value was 394.6 (±50.1) mg/dL and the “Mean Plasma Glucose Level 60 min” value is reported as 235.8 (±21.9) mg/dL. Moreover, the “Mean Plasma Glucose Level 120 min” value in data set [2] (Week 4) is 149.0 (±15.3) mg/dL. Besides, in data set [2] (Week 11), the “Mean Plasma Glucose Level 0 Min” value is given as 245.0 (±17.8) mg/dL, the “Mean Plasma Glucose Level 15 min” value is given as 408.0 (±29.8) mg/dL, the “Mean Plasma Glucose Level 30 min” value was 513.6 (±37.6) mg/dL and the “Mean Plasma Glucose Level 60 min” value is 450.8 (±5.0) mg/dL. The “Mean Plasma Glucose Level 120 min” value in data set [2] (Week 11) was 266.8 mg/dL and 266.8 (±32.1) mg/dL. Also, the “weight gain compared to the control” value in data set [3] is on record as “most dramatic reduction in weight gain compared to the control”. Further, the “cellular uptake (of total amount of compound applied to cells)” value (shortened to “cellular uptake”) in data set [4] was 6.9%. The “ratio of aggregates to monomers (JC-1) versus control” value (shortened to “ratio of aggregates to monomers”) in data set [5] is given as “changed significantly from the control values”.
For the compound `COc1cc(O)c(CC=C(C)C)c(O)c1C(=O)/C=C/c1ccc(O)cc1` [XN, xanthohumol], in data set [1], the “cell viability … of exposure” value is listed as “did not significantly affect cell viability” and the “concentration at which cell viability was decreased” value was 50 µM. Further, in data set [2], the “insulin sensitivity in the GTT compared to control (vehicle-diet) mice” value is listed as “improved insulin sensitivity”, the “peak glucose level (group average)” value is on record as 508.8 mg/dL, the “time at which peak glucose level was reached” value amounted to 15 min and the peak glucose level worked out at 465.0 mg/dL. Moreover, the “time at which peak glucose level occurred” value in data set [2] is 15 min. In data set [2] (Week 4), the “Mean Plasma Glucose Level 0 Min” value was 283.4 (±4.6) mg/dL, the “Mean Plasma Glucose Level 15 min” value is 508.8 (±28.3) mg/dL, the “Mean Plasma Glucose Level 30 min” value is recorded as 456.0 (±41.5) mg/dL and the “Mean Plasma Glucose Level 60 min” value is given as 389.6 (±29.8) mg/dL. The “Mean Plasma Glucose Level 120 min” value in data set [2] (Week 4) is 167.0 (±3.8) mg/dL. In addition, in data set [2] (Week 11), the “Mean Plasma Glucose Level 0 Min” value is recorded as 193.2 (±21.9) mg/dL, the “Mean Plasma Glucose Level 15 min” value is listed as 465.0 (±30.0) mg/dL, the “Mean Plasma Glucose Level 30 min” value is given as 452.0 (±41.6) mg/dL and the “Mean Plasma Glucose Level 60 min” value was 463.8 (±52.2) mg/dL. In addition, in data set [2] (Week 11), the “Mean Plasma Glucose Level 120 min” value is 373.4 mg/dL and 373.4 (±58.1) mg/dL. The “weight gain compared to the control” value in data set [3] is “followed DXN, then XN”. For the same compound, in data set [4], the “cellular uptake” value is listed as “approximately 6.6%”. Further, the “ratio of aggregates to monomers” value in data set [5] is given as “changed significantly from the control values”.
On to `COc1cc(O)c(CC=C(C)C)c(O)c1C(=O)CCc1ccc(O)cc1` [DXN, α,β-dihydroxanthohumol], for which, in data set [1], the “cell viability … of exposure” value was “did not significantly affect cell viability” and the “concentration at which cell viability was decreased” value is 8 µM. In data set [2], the “insulin sensitivity in the GTT compared to control (vehicle-diet) mice” value is given as “improved insulin sensitivity”; the “peak glucose level (group average)” value is 423.0 mg/dL and 407.2 mg/dL; the “time at which peak glucose level was reached” value is 30 min; the peak glucose level was 508.0 mg/dL. In addition, the “time at which peak glucose level occurred” value in data set [2] is 30 min. For the same compound, in data set [2] (Week 4), the “Mean Plasma Glucose Level 0 Min” value was 297.6 (±6.6) mg/dL, the “Mean Plasma Glucose Level 15 min” value is reported as 396.4 (±55.9) mg/dL, the “Mean Plasma Glucose Level 30 min” value is listed as 423.0 (±76.3) mg/dL and the “Mean Plasma Glucose Level 60 min” value is reported as 342.8 (±70.4) mg/dL. The “Mean Plasma Glucose Level 120 min” value in data set [2] (Week 4) is listed as 176.2 (±40.0) mg/dL. In addition, in data set [2] (Week 11), the “Mean Plasma Glucose Level 0 Min” value was 249.8 (±22.1) mg/dL, the “Mean Plasma Glucose Level 15 min” value was 474.4 (±46.0) mg/dL, the “Mean Plasma Glucose Level 30 min” value was 508.0 (±41.2) mg/dL and the “Mean Plasma Glucose Level 60 min” value is 494.8 (±38.9) mg/dL. For the same compound, the “Mean Plasma Glucose Level 120 min” value in data set [2] (Week 11) was 298.8 mg/dL and 298.8 (±45.5) mg/dL. The “weight gain compared to the control” value in data set [3] is reported as “followed DXN, then XN”. For the same compound, the “cellular uptake” value in data set [4] was 7.8%. Besides, the “ratio of aggregates to monomers” value in data set [5] is “changed significantly from the control values”.
